Data on 8 compounds can be found in patent publication US20110097365A1, “S-TRIAZINE DERIVATIVES CONTAINING AT LEAST TWO PARTICULAR SILANE AMINOBENZOATE OR SILANE AMINOBENZAMIDE GROUPS; PHOTOPROTECTIVE COSMETIC COMPOSITIONS CONTAINING THESE DERIVATIVES; USES OF THE SAID S-TRIAZINE DERIVATIVES” (L'OREAL, priority 2007, published 2011).

“And” between values parts separate entries of the source, which are not always exact repeats. Equal entries are not always repeated.

What all share (format): physicochemical
A short description of series [1]: Macroscopic observation of 1% oily dispersions in phenylethyl benzoate. Conditions: 1% by weight in phenylethyl benzoate (X-Tend 226), after about one week. As for the experimental part:
(§1) Two micronizations of these compounds 1 and 2 are performed by milling in oily medium (oil: phenylethyl benzoate—X-Tend 226 from ISP) by means of a mill without addition of dispersant, using a Dispermat ball mill.
(§2) • Dispermat AE 06-C1 disperser-mill (Brant Industrie) • Dispersion: slurries containing 17% R056336A and 49% F17845 (difference in oil uptake) ˜3000 rpm ˜15 minutes • Milling under rapid conditions (30 minutes at 4500 rpm), not optimized (water-cooling circuit not operational) with 0.7-1.2 mm […] balls.
Two oily dispersions in phenylethyl benzoate (X-Tend 226) comprising 1% by weight, respectively, of compound 1A or 2A are then prepared.

Series [2] can be described thus: Granulometric measurements by SLS (Mastersizer). Here is the method: as §1, §2
The granulometric results obtained by SLS using a Mastersizer granulometer reveal a very marked difference in particle size between compound 1 and compound 2, with particle sizes d(0.5), respectively, of 0.118 μm as opposed to 851 μm.

The nature of series [3]: UV absorption of the derivatives in DMSO/ethanol. Conditions: for E1% / εmax: at the λmax of the same block.

Consider `CC(C)(C)CC(C)(C)c1cc(Cc2cc(C(C)(C)CC(C)(C)C)cc(-n3nc4ccccc4n3)c2O)c(O)c(-n2nc3ccccc3n2)c1` [Compound 2, methylenebis(benzo-triazolyl)tetramethylbutylphenol], for which the “macroscopic stability of dispersion” value in series [1] is listed as “totally insoluble”.

On to `C[Si](C)(C)COC(=O)c1ccc(Nc2nc(Nc3ccc(C(=O)OC[Si](C)(C)C)cc3)nc(Nc3ccc(C(=O)OC[Si](C)(C)C)cc3)n2)cc1` [Example 1, 2,4,6-tris(methyltrimethyl-silyl 4′-aminobenzoate)-s-triazine], for which, in series [2] (after milling in phenylethyl benzoate without dispersant, SLS Mastersizer), the “particle size d(0.5)” value was 0.118 μm. The “dispersibility in the oil phenylethyl benzoate” value in series [2] (overall conclusion, compared with compound 2) is “markedly superior dispersibility”. In series [3], the λmax was determined as 314 nm, the E1% was determined as 1700 and the εmax is listed as 126 660.

With `CCCCOC(=O)c1ccc(Nc2nc(Nc3ccc(C(=O)OC[Si](C)(C)C)cc3)nc(Nc3ccc(C(=O)OC[Si](C)(C)C)cc3)n2)cc1` [Example 2, 2,4-bis(methyltrimethylsilyl 4′-aminobenzoate)-6-(butyl 4″-aminobenzoate)-s-triazine], in series [3], the λmax came out at 313 nm, the E1% turned out to be 1660 and the εmax was 104 560.

In the case of `C[Si](C)(C)COC(=O)c1ccc(Nc2nc(Nc3ccc(C(=O)OC[Si](C)(C)C)c(O)c3)nc(Nc3ccc(C(=O)OC[Si](C)(C)C)c(O)c3)n2)cc1O` [Example 3, 2,4,6-tris(methyltrimethyl-silyl 4′-aminosalicylate)-s-triazine], in series [3], the λmax is 326 nm and 300 nm; the E1% was 1456 and 938; the εmax is 107 610 and 74 400.

As for `COc1ccc(-c2nc(Nc3ccc(C(=O)OC[Si](C)(C)C)cc3)nc(Nc3ccc(C(=O)OC[Si](C)(C)C)cc3)n2)cc1` [Example 4, 2,4-bis(methyltrimethylsilyl 4′-aminobenzoate)-6-(para-methoxyphenyl)-s-triazine], in series [3], the λmax is on record as 303 nm, the E1% amounted to 1313 and the εmax is recorded as 82 700.

`COc1ccc(-c2nc(Nc3ccc(C(=O)OC[Si](C)(C)C)c(O)c3)nc(Nc3ccc(C(=O)OC[Si](C)(C)C)c(O)c3)n2)cc1` [Example 5, 2,4-bis(methyltrimethylsilyl 4′-aminosalicylate)-6-(para-methoxyphenyl)-s-triazine]: in series [3], the λmax is 329 nm and 316 nm and 298 nm; the E1% was 927 and 1066 and 1030; the εmax was 61 370 and 70 570 and 68 190.

Take `CC12CCC(/C(=C\c3ccc(Nc4nc(Nc5ccc(C(=O)OC[Si](C)(C)C)cc5)nc(Nc5ccc(C(=O)OC[Si](C)(C)C)cc5)n4)cc3)C1=O)C2(C)C` (stereo not shown) [Example 6, 2,4-bis(methyltrimethylsilyl 4′-aminobenzoate)-6-(4″-aminobenzylidenecamphor)-s-triazine]: the λmax in series [3] was 313 nm and 345 nm.

As to `C[Si](C)(C)CNC(=O)c1ccc(Nc2nc(Nc3ccc(C(=O)NC[Si](C)(C)C)cc3)nc(Nc3ccc(C(=O)NC[Si](C)(C)C)cc3)n2)cc1` [Example 7, 2,4,6-tris(methyltrimethyl-silyl 4′-aminobenzamide)-s-triazine], in series [3], the λmax came out at 303 nm, the E1% is 1123 and the εmax is reported as 83 330.
